Laboratory results reported in PubChem BioAssay (NCI).
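Each compound was tested at five concentrations against cells in 96-well plates for 48 hours. The concentration for full growth arrest is given as TGI.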

Key:
Experiment in all cases: DTP human tumour cell line panel, 48 h
786-0 renal = tested on: 786-0 renal
A498 renal = tested on: A498 renal
A549 NSCLC = tested on: A549 NSCLC
ACHN renal = tested on: ACHN renal
BT-549 breast = tested on: BT-549 breast
CAKI-1 renal = tested on: CAKI-1 renal
CCRF-CEM leukemia = tested on: CCRF-CEM leukemia
COLO 205 colon = tested on: COLO 205 colon
DU-145 prostate = tested on: DU-145 prostate
EKVX NSCLC = tested on: EKVX NSCLC
HCC-2998 colon = tested on: HCC-2998 colon
HCT-116 colon = tested on: HCT-116 colon
HCT-15 colon = tested on: HCT-15 colon
HL-60(TB) leukemia = tested on: HL-60(TB) leukemia
HOP-62 NSCLC = tested on: HOP-62 NSCLC
HOP-92 NSCLC = tested on: HOP-92 NSCLC
HS 578T breast = tested on: HS 578T breast
HT29 colon = tested on: HT29 colon
IGROV1 ovarian = tested on: IGROV1 ovarian
K-562 leukemia = tested on: K-562 leukemia
KM12 colon = tested on: KM12 colon
LOX IMVI melanoma = tested on: LOX IMVI melanoma
M14 melanoma = tested on: M14 melanoma
MALME-3M melanoma = tested on: MALME-3M melanoma
MCF7 breast = tested on: MCF7 breast
MDA-MB-231 breast = tested on: MDA-MB-231 breast
MDA-MB-435 = tested on: MDA-MB-435
MDA-N = tested on: MDA-N
MOLT-4 leukemia = tested on: MOLT-4 leukemia
NCI-H226 lung = tested on: NCI-H226 lung
NCI-H23 lung = tested on: NCI-H23 lung
NCI-H460 lung = tested on: NCI-H460 lung
NCI-H522 lung = tested on: NCI-H522 lung
NCI/ADR-RES ovarian = tested on: NCI/ADR-RES ovarian
OVCAR-3 ovarian = tested on: OVCAR-3 ovarian
OVCAR-4 ovarian = tested on: OVCAR-4 ovarian
OVCAR-5 ovarian = tested on: OVCAR-5 ovarian
OVCAR-8 ovarian = tested on: OVCAR-8 ovarian
PC-3 prostate = tested on: PC-3 prostate
RPMI-8226 leukemia = tested on: RPMI-8226 leukemia
SF-268 CNS = tested on: SF-268 CNS
SF-295 CNS = tested on: SF-295 CNS
SF-539 CNS = tested on: SF-539 CNS
SK-MEL-2 melanoma = tested on: SK-MEL-2 melanoma
SK-MEL-28 melanoma = tested on: SK-MEL-28 melanoma
SK-MEL-5 melanoma = tested on: SK-MEL-5 melanoma
SK-OV-3 ovarian = tested on: SK-OV-3 ovarian
SN12C renal = tested on: SN12C renal
SNB-19 CNS = tested on: SNB-19 CNS
SNB-75 CNS = tested on: SNB-75 CNS
SR leukemia = tested on: SR leukemia
SW-620 colon = tested on: SW-620 colon
T-47D breast = tested on: T-47D breast
TK-10 renal = tested on: TK-10 renal
U251 CNS = tested on: U251 CNS
UACC-257 melanoma = tested on: UACC-257 melanoma
UACC-62 melanoma = tested on: UACC-62 melanoma
UO-31 renal = tested on: UO-31 renal
RXF 393 renal = tested on: RXF 393 renal

## Cc1cc(O)c2c(c1)C(=O)C=C(Br)C2=O
786-0 renal
  TGI: 31.3 µM
A498 renal
  TGI: 38.2 µM
A549 NSCLC
  TGI: > 60.5 µM
ACHN renal
  TGI: 29.3 µM
BT-549 breast
  TGI: 30.6 µM
CAKI-1 renal
  TGI: 27.7 µM
CCRF-CEM leukemia
  TGI: 4.1 µM
COLO 205 colon
  TGI: 19.2 µM
DU-145 prostate
  TGI: 17 µM
EKVX NSCLC
  TGI: > 61.2 µM
HCC-2998 colon
  TGI: > 58.1 µM
HCT-116 colon
  TGI: 30.8 µM
HCT-15 colon
  TGI: 27.4 µM
HL-60(TB) leukemia
  TGI: 1.71 µM
HOP-62 NSCLC
  TGI: > 100 µM
HOP-92 NSCLC
  TGI: 27 µM
HS 578T breast
  TGI: 35.6 µM
HT29 colon
  TGI: 40.3 µM
IGROV1 ovarian
  TGI: > 60.2 µM
K-562 leukemia
  TGI: 3.38 µM
KM12 colon
  TGI: > 55.8 µM
LOX IMVI melanoma
  TGI: 25.4 µM
M14 melanoma
  TGI: 29.5 µM
MALME-3M melanoma
  TGI: 17.2 µM
MCF7 breast
  TGI: 23.4 µM
MDA-MB-231 breast
  TGI: 33.8 µM
MDA-MB-435
  TGI: 27.6 µM
MDA-N
  TGI: 28.7 µM
MOLT-4 leukemia
  TGI: 4.45 µM
NCI-H226 lung
  TGI: 34.8 µM
NCI-H23 lung
  TGI: 35.5 µM
NCI-H460 lung
  TGI: 45.9 µM
NCI-H522 lung
  TGI: 7.34 µM
NCI/ADR-RES ovarian
  TGI: 43.1 µM
OVCAR-3 ovarian
  TGI: 30.6 µM
OVCAR-4 ovarian
  TGI: 24 µM
OVCAR-5 ovarian
  TGI: 29.7 µM
OVCAR-8 ovarian
  TGI: 42.3 µM
PC-3 prostate
  TGI: 31.8 µM
RPMI-8226 leukemia
  TGI: 23 µM
SF-268 CNS
  TGI: 98.9 µM
SF-295 CNS
  TGI: > 60.5 µM
SF-539 CNS
  TGI: 29.8 µM
SK-MEL-2 melanoma
  TGI: 31.2 µM
SK-MEL-28 melanoma
  TGI: 29.7 µM
SK-MEL-5 melanoma
  TGI: 27.4 µM
SK-OV-3 ovarian
  TGI: > 100 µM
SN12C renal
  TGI: 31 µM
SNB-19 CNS
  TGI: > 100 µM
SNB-75 CNS
  TGI: 31 µM
SR leukemia
  TGI: 42 µM
SW-620 colon
  TGI: 12.2 µM
T-47D breast
  TGI: 14.9 µM
TK-10 renal
  TGI: 30.1 µM
U251 CNS
  TGI: 95.1 µM
UACC-257 melanoma
  TGI: 26.5 µM
UACC-62 melanoma
  TGI: 32.4 µM
UO-31 renal
  TGI: 28.9 µM

## Cc1cc(CN(Cc2ccccc2)Cc2nc3ccccc3[nH]2)c(O)c(CN(Cc2nc3ccccc3[nH]2)Cc2nc3ccccc3[nH]2)c1
786-0 renal
  TGI: 73.4 µM
A498 renal
  TGI: > 48.6 µM
A549 NSCLC
  TGI: > 95.1 µM
BT-549 breast
  TGI: 18.3 µM
CAKI-1 renal
  TGI: > 100 µM
CCRF-CEM leukemia
  TGI: > 21.8 µM
COLO 205 colon
  TGI: > 55.1 µM
DU-145 prostate
  TGI: > 100 µM
EKVX NSCLC
  TGI: 99.1 µM
HCC-2998 colon
  TGI: 38 µM
HCT-116 colon
  TGI: 23.1 µM
HCT-15 colon
  TGI: > 23.1 µM
HOP-62 NSCLC
  TGI: 35.3 µM
HOP-92 NSCLC
  TGI: 14.7 µM
HS 578T breast
  TGI: > 100 µM
HT29 colon
  TGI: > 69.6 µM
IGROV1 ovarian
  TGI: > 93.2 µM
K-562 leukemia
  TGI: > 26.3 µM
KM12 colon
  TGI: 30.5 µM
LOX IMVI melanoma
  TGI: 13.3 µM
M14 melanoma
  TGI: 26.6 µM
MALME-3M melanoma
  TGI: > 93.2 µM
MCF7 breast
  TGI: 8.87 µM
MDA-MB-231 breast
  TGI: > 71.4 µM
MDA-MB-435
  TGI: 36.1 µM
MDA-N
  TGI: 29 µM
MOLT-4 leukemia
  TGI: 42.1 µM
NCI-H226 lung
  TGI: > 50.9 µM
NCI-H23 lung
  TGI: > 79.5 µM
NCI-H460 lung
  TGI: 28 µM
NCI-H522 lung
  TGI: > 69.5 µM
NCI/ADR-RES ovarian
  TGI: 35.9 µM
OVCAR-3 ovarian
  TGI: 63.5 µM
OVCAR-4 ovarian
  TGI: 98.7 µM
OVCAR-5 ovarian
  TGI: > 100 µM
OVCAR-8 ovarian
  TGI: > 100 µM
PC-3 prostate
  TGI: 60.6 µM
RPMI-8226 leukemia
  TGI: 38.4 µM
RXF 393 renal
  TGI: 64.1 µM
SF-268 CNS
  TGI: > 100 µM
SF-295 CNS
  TGI: > 61.6 µM
SF-539 CNS
  TGI: 22.4 µM
SK-MEL-2 melanoma
  TGI: 36.1 µM
SK-MEL-28 melanoma
  TGI: > 100 µM
SK-MEL-5 melanoma
  TGI: 19.5 µM
SK-OV-3 ovarian
  TGI: > 52.3 µM
SN12C renal
  TGI: > 100 µM
SNB-19 CNS
  TGI: > 25.1 µM
SNB-75 CNS
  TGI: > 72.3 µM
SR leukemia
  TGI: > 25.3 µM
SW-620 colon
  TGI: > 100 µM
T-47D breast
  TGI: > 69.5 µM
TK-10 renal
  TGI: > 67.9 µM
U251 CNS
  TGI: > 100 µM
UACC-257 melanoma
  TGI: 23.1 µM
UACC-62 melanoma
  TGI: 18.5 µM
UO-31 renal
  TGI: 36.7 µM
